The values that follow come from patent publication US8765730B2 (Hoffmann-La Roche Inc, priority 2010, dated 2014).

The term pEC50 denotes −log10 of the EC50, conventionally taken in molar units. Low values mean a large EC50, high ones a small EC50.

pEC50: −log10 of the molar value.

For this test, the target named is T1, human GPBAR1 receptor (Homo sapiens, UniProt Q8TDU6).
T1 construct: expressed in transfected cells
T1 sequence (Q8TDU6 1-330): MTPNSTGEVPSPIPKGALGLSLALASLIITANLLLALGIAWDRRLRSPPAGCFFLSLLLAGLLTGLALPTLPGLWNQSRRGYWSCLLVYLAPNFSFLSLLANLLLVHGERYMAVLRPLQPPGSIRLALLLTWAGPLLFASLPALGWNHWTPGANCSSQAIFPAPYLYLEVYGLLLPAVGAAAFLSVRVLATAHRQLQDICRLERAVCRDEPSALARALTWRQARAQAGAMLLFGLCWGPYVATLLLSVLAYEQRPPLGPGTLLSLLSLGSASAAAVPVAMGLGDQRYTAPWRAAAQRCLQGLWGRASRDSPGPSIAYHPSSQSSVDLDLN
The test can be described thus: functional cAMP assay in CHO-dhfr(minus) cells expressing human GPBAR1 receptors. The test is classed as cell-based. To be noted: human EC50, functional cAMP assay, 30 min at 30° C. As to the method:
The final clone was verified by DNA sequence analysis. The plasmid was transfected into CHO cells deficient in dihydrofolate reductase activity (CHO-dhfr−) using Lipofectamine plus (Invitrogen). Clones were isolated in limited dilution conditions and identified by activities in the cAMP assay using lithocholic acid as agonist.
The growth medium was exchanged with Krebs Ringer Bicarbonate buffer with 1 mM IBMX and incubated at 30° C. for 30 min. Compounds were added to a final assay volume of 100 μl and incubated for 30 min at 30° C. […] The time-resolved energy transfer is measured by a TRF reader (Evotec Technologies GmbH, Hamburg Germany), equipped with a ND:YAG laser as excitation source.
EC50 values were determined using Activity Base analysis (ID Business Solution, Limited). […] Specificity for GPBAR1 was tested in non-transfected CHO cells in the same assay as above.
As for `Cc1ccccc1C(C/C(=N\O)c1ccc(=O)n(C)c1)c1ccc(C(=O)NC[C@@H](C)O)cc1` (stereo partly drawn) [Example 248, 4-((E)-3-(Hydroxyimino)-3-(1-methyl-6-oxo-1,6-dihydropyridin-3-yl)-1-o-tolylpropyl)-N-((R)-2-hydroxypropyl)benzamide], the pEC50 was 7.15.
In turn, `Cn1cc(/C(CC(c2ccc(-c3ccc(C(=O)O)cc3)cc2)c2ccc(Cl)cc2F)=N/O)ccc1=O` (centres unmarked) [Example 238, 4′-[1-(4-Chloro-2-fluoro-phenyl)-3-[(E)-hydroxyimino]-3-(1-methyl-6-oxo-1,6-dihydro-pyridin-3-yl)-propyl]-biphenyl-4-carboxylic acid] showed a pEC50 of 7.64.
The same measure for `CC(C)CC(C/C(=N/O)c1ccc(=O)n(C)c1)c1ccc(Br)cc1` (centres unmarked) [Example 171, 5-{3-(4-Bromo-phenyl)-1-[(Z)-hydroxyimino]-5-methyl-hexyl}-1-methyl-1H-pyridin-2-one]: 5.40; for `Cn1cc(/C(CC(c2ccc(C(=O)NC[C@@H](O)CO)cc2)c2ccc(Cl)cc2F)=N/O)ccc1=O` (stereo partly drawn) [Example 312, 4-((E)-1-(4-Chloro-2-fluorophenyl)-3-(hydroxyimino)-3-(1-methyl-6-oxo-1,6-dihydropyridin-3-yl)propyl)-N—((R)-2,3-dihydroxypropyl)benzamide]: 6.49; for `Cn1cc(/C(CC(c2ccc(S(C)(=O)=O)cc2)c2cc(Cl)cc(Cl)c2)=N/O)ccc1=O` (centres unmarked) [Example 352, (E)-5-(3-(3,5-Dichlorophenyl)-1-(hydroxyimino)-3-(4-(methylsulfonyl)phenyl)propyl)-1-methylpyridin-2(1H)-one]: 7.09.
Under `Cn1cc(/C(CC(c2cccc(C(=O)N3CCOCC3)c2)c2ccc(Cl)cc2F)=N/O)ccc1=O` (centres unmarked) [Example 322, (E)-5-(3-(4-Chloro-2-fluorophenyl)-1-(hydroxyimino)-3-(3-(morpholine-4-carbonyl)phenyl)propyl)-1-methylpyridin-2(1H)-one] stands 5.40; under `Cc1ccccc1C(C/C(=N\O)c1ccc(=O)n(C)c1)c1ccc(C(=O)NCCO)cc1` (centres unmarked) [Example 208, N-(2-Hydroxy-ethyl)-4-[3-[(E)-hydroxyimino]-3-(1-methyl-6-oxo-1,6-dihydro-pyridin-3-yl)-1-o-tolyl-propyl]-benzamide], 7.03.
The same measure for `Cc1cc(C(CC(c2ccccc2)c2ccccc2)=NO)cc(C)n1` (racemic) [Example 67, 1-(2,6-Dimethyl-pyridin-4-yl)-3,3-diphenyl-propan-1-one oxime]: 6.88; for `Cn1cc(/C(CC(c2ccc(Br)cc2)C2CCC2)=N/O)ccc1=O` (centres unmarked) [Example 179, 5-{3-(4-Bromo-phenyl)-3-cyclobutyl-1-[(E)-hydroxyimino]-propyl}-1-methyl-1H-pyridin-2-one]: 6.78; for `Cc1cc(/C(C[C@H](c2ccc(-c3cn(C)nn3)cc2)c2ccccc2C)=N/O)ccn1` [Example 424, (−)-1-(2-Methyl-pyridin-4-yl)-3-[4-(1-methyl-1H-[1,2,3]triazol-4-yl)-phenyl]-3-o-tolyl-propan-1-one oxime]: 9.00.
Take `Cn1cc(/C(CC(c2ccc(Br)cc2)c2ccccc2Cl)=N/O)ccc1=O` (centres unmarked) [Example 203, 5-{3-(4-Bromo-phenyl)-3-(2-chloro-phenyl)-1-[(E)-hydroxyimino]-propyl}-1-methyl-1H-pyridin-2-one]: the pEC50 is 7.92.
Under `Cn1cc(/C(CC(c2ccc(Br)cc2)c2ccc(F)cc2F)=N/O)ccc1=O` (centres unmarked) [Example 402, 5-{3-(4-Bromo-phenyl)-3-(2,4-difluoro-phenyl)-1-[(E)-hydroxyimino]-propyl}-1-methyl-1H-pyridin-2-one] stands 8.22; under `O=C(O)c1cccc(C(C/C(=N\O)c2ccncc2)c2ccccc2)c1` (centres unmarked) [Example 69, 3-{3-[(E)-Hydroxyimino]-1-phenyl-3-pyridin-4-yl-propyl}-benzoic acid], 5.72.
In turn, `Cc1cc(/C(C[C@@H](c2ccc(C(=O)O)cc2)c2ccc(Cl)cc2C)=N/O)ccn1` [Example 282, 4-[(S)-1-(4-Chloro-2-methyl-phenyl)-3-[(E)-hydroxyimino]-3-(2-methyl-pyridin-4-yl)-propyl]-benzoic acid] had a pEC50 of 6.19.
As to `Cc1cc(C(=O)O)ccc1-c1ccc(C(C/C(=N\O)c2ccc(=O)n(C)c2)c2ccc(Cl)cc2Cl)cc1` (racemic) [Example 476, 4′-[1-(2,4-Dichloro-phenyl)-3-[(E)-hydroxyimino]-3-(1-methyl-6-oxo-1,6-dihydro-pyridin-3-yl)-propyl]-2-methyl-biphenyl-4-carboxylic acid], the pEC50 is 7.31.
The same measure for `CC(=O)NCCNC(=O)c1ccc(C(C/C(=N\O)c2ccc(=O)n(C)c2)c2ccccc2C)cc1` (centres unmarked) [Example 246, (E)-N-(2-Acetamidoethyl)-4-(3-(hydroxyimino)-3-(1-methyl-6-oxo-1,6-dihydropyridin-3-yl)-1-o-tolylpropyl)benzamide]: 5.66; for `Cc1ccccc1C(C/C(=N\O)c1ccn(C)c(=O)c1)c1ccc(Br)cc1` (centres unmarked) [Example 110, 4-{3-(4-Bromo-phenyl)-1-[(E)-hydroxyimino]-3-o-tolyl-propyl}-1-methyl-1H-pyridin-2-one]: 6.94; for `Cc1cc(/C(C[C@H](c2ccc(CC(=O)NCCO)cc2)c2ccccc2C)=N/O)ccn1` [Example 289, N-(2-Hydroxy-ethyl)-2-{4-[(R)-3-[(E)-hydroxyimino]-3-(2-methyl-pyridin-4-yl)-1-o-tolyl-propyl]-phenyl}-acetamide]: 7.64.
The same measure for `Cc1cc(/C(C[C@@H](c2ccc(N3CCOCC3)cc2)c2ccccc2C)=N/O)ccn1` [Example 381, (S,E)-1-(2-Methylpyridin-4-yl)-3-(4-morpholinophenyl)-3-o-tolylpropan-1-one oxime]: 7.30; for `Cc1cc(/C(CC(c2ccc(C(=O)NC3CCS(=O)(=O)CC3)cc2)c2ccc(F)cc2F)=N/O)ccn1` (centres unmarked) [Example 440, 4-[1-(2,4-Difluoro-phenyl)-3-[(E)-hydroxyimino]-3-(2-methyl-pyridin-4-yl)-propyl]-N-(1,1-dioxo-hexahydro-1λ^6-thiopyran-4-yl)-benzamide]: 6.83; for `Cc1ccccc1C(C/C(=N\O)c1cc(F)cc(F)c1F)c1ccc(Br)cc1` (centres unmarked) [Example 48, (E)-3-(4-Bromo-phenyl)-3-o-tolyl-1-(2,3,5-trifluoro-phenyl)-propan-1-one oxime]: 5.36.
Take `Cn1cc(/C(CC(c2ccc(Br)cc2)c2ccc(Cl)cc2F)=N/O)ccc1=O` (centres unmarked) [Example 237, 5-{3-(4-Bromo-phenyl)-3-(4-chloro-2-fluoro-phenyl)-1-[(E)-hydroxyimino]-propyl}-1-methyl-1H-pyridin-2-one]: the pEC50 was 7.60.
In turn, `Cc1cc(/C(CC(c2ccc(-c3ccc(C(=O)O)cc3)cc2)c2ccc(Cl)cc2C)=N/O)ccn1` (single isomer, unassigned) [Example 396, (−)-4′-[1-(4-Chloro-2-methyl-phenyl)-3-[(E)-hydroxyimino]-3-(2-methyl-pyridin-4-yl)-propyl]-biphenyl-4-carboxylic acid; compound with triethylamine 1:0.7] gave a pEC50 of 7.54.
The same measure for `Cc1cc(Cl)ccc1C(C/C(=N\O)c1ccc(=O)n(C)c1)c1ccc(-c2ccc(C(=O)NCC(=O)O)cc2)cc1` (centres unmarked) [Example 229, (E)-2-(4′-(1-(4-chloro-2-methylphenyl)-3-(hydroxyimino)-3-(1-methyl-6-oxo-1,6-dihydropyridin-3-yl)propyl)biphenyl-4-ylcarboxamido)acetic acid]: 7.66.
Under `Cc1cc(C(CC(c2ccc(Br)cc2)C(C)(C)C)=NO)ccn1` (racemic) [Example 129, 3-(4-Bromo-phenyl)-4,4-dimethyl-1-(2-methyl-pyridin-4-yl)-pentan-1-one oxime] stands 6.23.
The same measure for `Cc1cc(C(=O)O)ccc1-c1ccc(C(C/C(=N\O)c2ccc(=O)n(C)c2)c2ccc(Cl)cc2F)cc1` (single isomer, unassigned) [Example 466, 4′-[(+)-1-(4-Chloro-2-fluoro-phenyl)-3-[(E)-hydroxyimino]-3-(1-methyl-6-oxo-1,6-dihydro-pyridin-3-yl)-propyl]-2-methyl-biphenyl-4-carboxylic acid]: 6.46; for `Cc1cc(Cl)ccc1C(C/C(=N\O)c1ccc(=O)n(CCC(N)=O)c1)c1ccc(S(C)(=O)=O)cc1` (centres unmarked) [Example 344, (E)-3-(5-(3-(4-Chloro-2-methylphenyl)-1-(hydroxyimino)-3-(4-(methylsulfonyl)phenyl)-propyl)-2-oxopyridin-1(2H)-yl)propanamide]: 6.73.
Compound `Cc1ccccc1[C@H](C/C(=N\O)c1cc(Cl)nc(Cl)c1)c1ccc(-c2ccc(C(=O)O)cc2)cc1` [Example 146, (E,R)-4′-(3-(2,6-Dichloropyridin-4-yl)-3-(hydroxyimino)-1-o-tolylpropyl)biphenyl-4-carboxylic acid] had a pEC50 of 6.79.
Under `Cn1cc(/C(C[C@H](c2ccc(-c3ccc(C(=O)O)s3)cc2)c2ccc(Cl)cc2F)=N/O)ccc1=O` [Example 468, 5-{4-[(−)-1-(4-Chloro-2-fluoro-phenyl)-3-[(E)-hydroxyimino]-3-(1-methyl-6-oxo-1,6-dihydro-pyridin-3-yl)-propyl]-phenyl}-thiophene-2-carboxylic acid] stands 6.46.
